Here are results for 17 molecules from patent publication US11840524B2, “4-substituted phenyl-1,3,5-triazine derivatives as modulators of TrK receptors” (ALZECURE PHARMA AB, priority 2018, dated 2023).

For one test, the target named is T1, TrkA (Homo sapiens, UniProt P04629).
T1 construct: expressed in transfected cells; host or cells: U2OS
Description: Cell-based Enzyme Fragment Complementation (EFC) assay, U2OS cells over-expressing TrkA. The settings on record: compound pre-mixed with ligand (NGF), final ligand concentration 10 ng/mL, 3 hours at room temperature, read-out: TrkA potency expressed as EC50. An excerpt:
(§1) A high throughput cell-based screen has been used to identify positive modulators of TrkA, TrkB and TrkC. The screen involves the use of cell-based assay overexpressing TrkA, TrkB or TrkC. The purpose of the assay is to identify compounds that modulate neurotrophin signalling (Forsell et al 2012). The assay can be used in inhibitor mode using a high concentration of ligand, in modulator mode using an intermediate concentration and in agonist mode using a low concentration of ligand.
(§2) The assay uses Enzyme Fragment Complementation (EFC) technique, which is a proximity-based assay. Briefly, cells used in this assay over-express two fusion proteins, i.e. the receptor, which can be one of TrkA, TrkB or TrkC fused to a small peptide of beta-galactosidase and an adaptor protein, i.e. SHC1 (or any other Trk-adaptor protein) fused to the major part of beta-galactosidase. […] The proximity between the small activating peptide on the receptor and the major part of beta-galactosidase on the adaptor protein leads to an active beta-galactosidase enzyme. The activation of the receptor is quantified by measuring the amount of active beta-galactosidase by its conversion of a non-luminescent substrate into a luminescent product.
(§3) U2OS-cells, over-expressing TrkA or TrkB or TrkC, were plated in 96- or 384-well plates and incubated overnight. On the following day, test compound was pre-mixed with ligand (NGF) and the ligand-compound mixture is then added to the cells to yield a final ligand concentration of 10 ng/mL. After 3 hours of incubation at room temperature, the incubation is stopped by the addition of a beta-galactosidase substrate mixture containing detergents. The substrate mixture is incubated for 60 minutes at ambient temperature. The luminescence is thereafter read by the use of a plate reader.

Another test addresses T2, TrkB (Homo sapiens, UniProt Q16620).
T2 construct: expressed in transfected cells; host or cells: U2OS
Description: Cell-based Enzyme Fragment Complementation (EFC) assay, U2OS cells over-expressing TrkB. The settings on record: compound pre-mixed with ligand, final ligand concentration 10 ng/mL, 3 hours at room temperature, read-out: TrkB potency expressed as EC50.
Excerpt: as §1, §2, §3

A further test addresses T3, TrkC (Homo sapiens, UniProt Q16288).
T3 construct: expressed in transfected cells; host or cells: U2OS
Description: Cell-based Enzyme Fragment Complementation (EFC) assay, U2OS cells over-expressing TrkC. Conditions: compound pre-mixed with ligand, final ligand concentration 10 ng/mL, 3 hours at room temperature, read-out: TrkC potency expressed as EC50.
Excerpt: as §1, §2
U2OS-cells, over-expressing TrkA or TrkB or TrkC, were plated in 96- or 384-well plates and incubated overnight. […] The luminescence is thereafter read by the use of a plate reader.

The subject of test [1] is ephrin type-B receptor 2 (EphB2). Conditions: Suzuki et al., FEBS Open Bio 2016; cited from earlier work.

T2 sequence (Q16620 32-822): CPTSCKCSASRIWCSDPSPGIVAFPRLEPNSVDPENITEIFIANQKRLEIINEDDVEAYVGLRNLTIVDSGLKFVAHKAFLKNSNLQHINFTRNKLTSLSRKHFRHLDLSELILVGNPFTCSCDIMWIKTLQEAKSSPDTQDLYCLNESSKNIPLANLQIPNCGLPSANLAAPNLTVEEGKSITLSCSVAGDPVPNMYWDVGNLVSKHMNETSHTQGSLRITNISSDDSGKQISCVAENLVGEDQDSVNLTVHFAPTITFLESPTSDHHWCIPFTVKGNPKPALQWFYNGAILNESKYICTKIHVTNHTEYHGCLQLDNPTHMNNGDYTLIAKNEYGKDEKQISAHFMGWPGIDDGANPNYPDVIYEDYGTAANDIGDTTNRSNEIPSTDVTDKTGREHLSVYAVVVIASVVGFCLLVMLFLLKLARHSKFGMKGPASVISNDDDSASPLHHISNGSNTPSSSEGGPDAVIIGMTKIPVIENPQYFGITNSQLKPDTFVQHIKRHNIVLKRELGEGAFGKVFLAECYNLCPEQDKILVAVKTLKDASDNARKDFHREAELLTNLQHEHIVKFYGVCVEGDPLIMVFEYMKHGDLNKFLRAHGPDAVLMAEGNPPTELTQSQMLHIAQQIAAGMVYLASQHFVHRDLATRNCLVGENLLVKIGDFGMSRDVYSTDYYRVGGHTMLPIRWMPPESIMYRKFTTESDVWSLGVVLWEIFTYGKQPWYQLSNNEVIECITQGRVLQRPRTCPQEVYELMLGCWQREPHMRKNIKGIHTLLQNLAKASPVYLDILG
T1 sequence (P04629 33-796): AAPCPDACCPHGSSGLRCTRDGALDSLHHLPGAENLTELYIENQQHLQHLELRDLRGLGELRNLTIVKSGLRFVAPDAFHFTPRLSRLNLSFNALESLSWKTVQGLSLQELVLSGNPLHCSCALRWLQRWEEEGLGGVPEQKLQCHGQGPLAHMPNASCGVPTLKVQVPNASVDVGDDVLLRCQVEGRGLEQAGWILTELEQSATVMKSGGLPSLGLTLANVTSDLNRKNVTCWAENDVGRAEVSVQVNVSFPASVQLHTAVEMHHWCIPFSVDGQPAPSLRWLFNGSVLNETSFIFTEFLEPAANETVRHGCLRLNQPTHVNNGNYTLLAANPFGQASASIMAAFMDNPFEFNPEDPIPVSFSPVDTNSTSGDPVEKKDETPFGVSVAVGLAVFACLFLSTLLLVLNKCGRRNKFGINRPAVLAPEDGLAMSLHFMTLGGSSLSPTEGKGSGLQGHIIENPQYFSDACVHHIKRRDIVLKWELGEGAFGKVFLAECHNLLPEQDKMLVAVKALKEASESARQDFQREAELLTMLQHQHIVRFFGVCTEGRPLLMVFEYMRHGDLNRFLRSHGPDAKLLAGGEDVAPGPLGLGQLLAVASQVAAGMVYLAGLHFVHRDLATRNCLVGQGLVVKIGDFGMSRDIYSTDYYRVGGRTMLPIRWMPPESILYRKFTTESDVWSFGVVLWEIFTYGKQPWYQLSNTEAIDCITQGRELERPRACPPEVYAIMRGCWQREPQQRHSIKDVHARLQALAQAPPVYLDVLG
T3 sequence (Q16288 32-839): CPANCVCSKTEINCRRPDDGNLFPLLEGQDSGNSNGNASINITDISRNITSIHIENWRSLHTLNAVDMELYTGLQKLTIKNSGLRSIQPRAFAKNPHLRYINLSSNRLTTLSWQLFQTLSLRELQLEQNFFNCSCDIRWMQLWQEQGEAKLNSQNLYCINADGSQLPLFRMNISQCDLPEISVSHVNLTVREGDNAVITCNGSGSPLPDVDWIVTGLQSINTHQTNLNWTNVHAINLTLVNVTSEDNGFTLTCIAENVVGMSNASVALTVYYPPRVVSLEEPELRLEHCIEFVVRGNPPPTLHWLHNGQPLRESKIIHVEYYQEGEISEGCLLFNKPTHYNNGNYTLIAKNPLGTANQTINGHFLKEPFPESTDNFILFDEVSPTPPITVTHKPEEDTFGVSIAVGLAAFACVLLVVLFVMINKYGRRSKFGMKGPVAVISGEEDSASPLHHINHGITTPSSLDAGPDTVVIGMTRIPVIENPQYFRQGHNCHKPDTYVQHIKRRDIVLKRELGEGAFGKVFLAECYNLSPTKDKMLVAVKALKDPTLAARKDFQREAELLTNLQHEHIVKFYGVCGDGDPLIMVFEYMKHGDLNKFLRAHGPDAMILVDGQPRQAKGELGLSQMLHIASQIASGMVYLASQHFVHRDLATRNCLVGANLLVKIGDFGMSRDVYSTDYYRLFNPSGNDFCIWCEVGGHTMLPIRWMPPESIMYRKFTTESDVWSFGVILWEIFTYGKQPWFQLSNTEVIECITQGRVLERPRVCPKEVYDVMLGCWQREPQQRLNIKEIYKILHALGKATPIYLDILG

What is called EC50 is the concentration giving half of the maximal effect. On to `O=c1[nH]c(=O)n(-c2ccc(Oc3ccccc3)c(Cn3cc(F)cn3)c2)c(=O)n1-c1ccccc1` [Example 14, 1-{3-[(4-fluoro-1H-pyrazol-1-yl)methyl]-4-phenoxyphenyl}-3-phenyl-1,3,5-triazinane-2,4,6-trione], for which the EC50 at TrkA and at TrkB was 180 nM each time.
`O=c1[nH]c(=O)n(-c2ccc(Oc3ccccc3)c(Cn3cccn3)c2)c(=O)n1-c1ccccc1` [Example 1, 1-{4-phenoxy-3-[(1H-pyrazol-1-yl)methyl]phenyl}-3-phenyl-1,3,5-triazinane-2,4,6-trione]: the figures for the EC50 on TrkA, on TrkB and at TrkC were 160 nM, 200 nM and 120 nM, respectively.
In the case of “1-{3-[(4-methyl-1H-imidazol-1-yl)methyl]-4-phenoxyphenyl}-3-(3-methylphenyl)-1,3,5-triazinane-2,4,6-trione+1-{3-[(5-methyl-1H-imidazol-1-yl)methyl]-4-phenoxyphenyl}-3-(3-methylphenyl)-1,3,5-triazinane-2,4,6-trione [Example 11]”, the EC50 was 220 nM at TrkA and 140 nM on TrkB.
Turning to `Cc1cccc(-n2c(=O)[nH]c(=O)n(-c3ccc(Oc4ccccc4)c(OCc4cnc[nH]4)c3)c2=O)c1` [Example 10, 1-{3-[(1H-imidazol-5-yl)methoxy]-4-phenoxyphenyl}-3-(3-methylphenyl)-1,3,5-triazinane-2,4,6-trione], the values for the EC50 at TrkA and at TrkB were 1670 nM and 12000 nM, respectively.
On the same counts, the results for `Cc1cccc(-n2c(=O)[nH]c(=O)n(-c3ccc(Oc4ccccc4)c(OCc4ncc[nH]4)c3)c2=O)c1` [Example 9, 1-{3-[(1H-imidazol-2-yl)methoxy]-4-phenoxyphenyl}-3-(3-methylphenyl)-1,3,5-triazinane-2,4,6-trione] are 250 nM and 120 nM.
In the same order, the values of `Cc1cccc(-n2c(=O)[nH]c(=O)n(-c3ccc(Oc4ccc(F)cc4)c(Cn4ccnc4)c3)c2=O)c1` [Example 8, 1-[4-(4-fluorophenoxy)-3-[(1H-imidazol-1-yl)methyl]phenyl]-3-(3-methylphenyl)-1,3,5-triazinane-2,4,6-trione] are 190 nM and 170 nM.
In the same order, the values of `CCn1cc(Cc2cc(-n3c(=O)[nH]c(=O)n(-c4ccccc4)c3=O)ccc2Oc2ccccc2)cn1` [Example 16, 1-{3-[(1-ethyl-1H-pyrazol-4-yl)methyl]-4-phenoxyphenyl}-3-phenyl-1,3,5-triazinane-2,4,6-trione] are 180 nM and 170 nM.
For the molecule `O=c1[nH]c(=O)n(-c2ccc(Oc3ccccc3)c(Cn3ccnc3)c2)c(=O)n1-c1ccccc1` [Example 2, 1-{3-[(1H-imidazol-1-yl)methyl]-4-phenoxyphenyl}-3-phenyl-1,3,5-triazinane-2,4,6-trione], the half-maximal effective concentration (EC50) on TrkA is 380 nM; on TrkB, 270 nM; at TrkC, 200 nM.
As for `O=c1[nH]c(=O)n(-c2ccc(Oc3ccccc3)c(Cn3cncn3)c2)c(=O)n1-c1ccccc1` [Example 3, 1-{4-phenoxy-3-[(1H-1,2,4-triazol-1-yl)methyl]phenyl}-3-phenyl-1,3,5-triazinane-2,4,6-trione], the concentration giving a half-maximal response (EC50) on TrkA was 520 nM; at TrkB, 810 nM.
In the same order, the values of `CCc1ccc(Oc2ccc(-n3c(=O)[nH]c(=O)n(C)c3=O)cc2Cn2cccn2)cc1` [Example 4, 1-[4-(4-ethylphenoxy)-3-[(1H-pyrazol-1-yl)methyl]phenyl]-3-methyl-1,3,5-triazinane-2,4,6-trione] are 1100 nM and 2070 nM.
Regarding `COc1ccc(-n2c(=O)[nH]c(=O)n(-c3ccc(Oc4ccccc4)c(Cn4ccnc4)c3)c2=O)cc1` [Example 7, 1-{3-[(1H-imidazol-1-yl)methyl]-4-phenoxyphenyl}-3-(4-methoxyphenyl)-1,3,5-triazinane-2,4,6-trione], the EC50 on TrkA stood at 720 nM; at TrkB, 450 nM.
Regarding `Cc1cccc(-n2c(=O)[nH]c(=O)n(-c3ccc(Oc4ccccc4)c(Cn4cc(F)cn4)c3)c2=O)c1` [Example 15, 1-{3-[(4-fluoro-1H-pyrazol-1-yl)methyl]-4-phenoxyphenyl}-3-(3-methylphenyl)-1,3,5-triazinane-2,4,6-trione], the figures for the half-maximal effective concentration (EC50) on TrkA and on TrkB were 120 nM and 90 nM, respectively.
On the same counts, the results for `Cc1cccc(-n2c(=O)[nH]c(=O)n(-c3ccc(Oc4ccccc4)c(Cn4ccnc4)c3)c2=O)c1` [Example 6, 1-{3-[(1H-imidazol-1-yl)methyl]-4-phenoxyphenyl}-3-(3-methylphenyl)-1,3,5-triazinane-2,4,6-trione] are 160 nM and 200 nM.
Consider `Cc1cccc(-n2c(=O)[nH]c(=O)n(-c3ccc(Oc4ccccc4)c(-n4cnc(C)c4)c3)c2=O)c1` [Example 13, 1-[3-(4-methyl-1H-imidazol-1-yl)-4-phenoxyphenyl]-3-(3-methylphenyl)-1,3,5-triazinane-2,4,6-trione], for which the concentration giving a half-maximal response (EC50) turned out to be 650 nM on TrkA and 470 nM on TrkB.
Take `Cc1cc(-n2c(=O)[nH]c(=O)n(C)c2=O)ccc1Oc1ccc(SC(F)(F)F)cc1` [toltrazuril, 1-methyl-3-(3-methyl-4-{4-[(trifluoromethyl)sulfanyl]phenoxy}phenyl)-1,3,5-triazinane-2,4,6-trione]: the “inhibition of the binding of β-amyloid oligomers to EphB2” value in test [1] was 30%.
In the case of `Cc1cccc(-n2c(=O)[nH]c(=O)n(-c3ccc(Oc4ccccc4)c(Cn4cnc(F)c4)c3)c2=O)c1` [Example 12, 1-{3-[(4-fluoro-1H-imidazol-1-yl)methyl]-4-phenoxyphenyl}-3-(3-methylphenyl)-1,3,5-triazinane-2,4,6-trione], the half-maximal effective concentration (EC50) on TrkA amounted to 100 nM; on TrkB it was 60 nM.
In the same order, the values of `Cn1c(=O)[nH]c(=O)n(-c2ccc(-c3ccccc3)c(Cn3cccn3)c2)c1=O` [Example 5, 1-methyl-3-{2-[(1H-pyrazol-1-yl)methyl]-[1,1′-biphenyl]-4-yl}-1,3,5-triazinane-2,4,6-trione] are 1320 nM and 31000 nM.
